Laboratory results from patent publication US20140275108A1, “NOVEL BENZENESULFONAMIDE COMPOUNDS, METHOD FOR SYNTHESIZING SAME, AND USE THEREOF IN MEDICINE AS WELL AS IN COSMETICS” (GALDERMA RESEARCH & DEVELOPMENT, priority 2013, published 2014).
Like-named read-outs stand apart in the source and are kept apart here.

Assays:
other MMPs = test: Inhibition of other MMPs (data not shown); format: biochemical
Source text: (§1) Several compounds were dose-response tested on TACE and MMP-1, MMP-3, and MMP-12 according to the same protocol as that described above.

TACE enzyme = TACE enzyme (Homo sapiens, UniProt P78536); test: Enzymatic assay for TACE inhibition (fluorescent substrate); format: biochemical
Sequence of TACE enzyme (P78536 215-477): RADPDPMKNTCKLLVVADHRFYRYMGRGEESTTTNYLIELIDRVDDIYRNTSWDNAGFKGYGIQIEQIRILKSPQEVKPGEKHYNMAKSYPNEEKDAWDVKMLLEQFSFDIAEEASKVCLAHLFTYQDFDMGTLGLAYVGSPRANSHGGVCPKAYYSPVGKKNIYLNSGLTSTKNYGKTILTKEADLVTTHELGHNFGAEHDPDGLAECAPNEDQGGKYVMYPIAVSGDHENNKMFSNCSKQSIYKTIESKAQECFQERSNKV

MMP-12 = MMP-12 (Homo sapiens, UniProt P39900); test: Inhibition of MMPs, MMP-12; format: biochemical; conditions: Table 3, Example 30
Sequence of MMP-12 (P39900 106-470): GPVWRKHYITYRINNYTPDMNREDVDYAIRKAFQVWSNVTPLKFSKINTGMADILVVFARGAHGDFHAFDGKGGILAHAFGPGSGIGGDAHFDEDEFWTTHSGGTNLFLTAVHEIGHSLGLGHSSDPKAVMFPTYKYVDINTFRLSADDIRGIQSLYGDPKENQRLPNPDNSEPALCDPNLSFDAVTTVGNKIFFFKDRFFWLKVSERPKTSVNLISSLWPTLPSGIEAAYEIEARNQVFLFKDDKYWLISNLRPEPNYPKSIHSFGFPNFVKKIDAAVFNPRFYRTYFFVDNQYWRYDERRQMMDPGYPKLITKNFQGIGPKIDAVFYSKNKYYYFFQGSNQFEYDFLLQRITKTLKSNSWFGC
Source text: as §1

[1] = test system: edema induced by P. acnes; test: Mouse ear edema model, cutaneous inflammation induced by P. acnes (ear thickness); format: in vivo, Balb/c mouse; conditions: topical on mouse ear, Day 1 to Day 7, after intradermal live P. acnes; Compound D 0.1%, 0.3%, 0.6% once a day, 0.6% twice a day; CD0153F 0.01% once a day; FIG. 1
Method: (§2) P. acnes stimulates the production of inflammatory cytokines, such as TNFα and interleukins. In this Example, the mouse ear edema model was used to investigate inflammation induced by P. acnes. This is a chronic inflammation model involving intense innate and adaptive immunity. The thickness of the ear is measured each day to determine the amount of swelling caused by P. acnes. The amount of TNFα and IL-6 secreted is determined.
(§3) After one intradermal injection of live P. acnes on Day 0, each of the following preparations was topically applied once a day on the ear of a Balb/c mouse over the course of 7 days (from Day 1 to Day 7). […]
(§4) Preparations 1-3 served as controls for comparison with preparations 4-7. […] The thickness of the ear was measured each day with a caliper from day 1 until day 8. The amount of TNFα and IL-6 secreted by the skin cells was determined using tissue biopsy samples from the mouse ear. TNF-α and Il-6 were measured using the mouse BD™ Cytometric Bead Array Flex (BD Bioscience, Dosage by FacsArray).

TNFα = test: Mouse ear edema model, TNFα secretion by ear skin cells; format: in vivo, Balb/c mouse; conditions: ear tissue biopsy, topical Day 1 to Day 7; FIG. 2A
Method: as §2, §3, §4

MMP-3 = target: T1, MMP-3 (Homo sapiens, UniProt P08254); test: Selectivity assay, MMP-3; format: biochemical; conditions: Table 3, Example 30
T1 construct: purchased Calbiochem
T1 sequence (P08254 100-477): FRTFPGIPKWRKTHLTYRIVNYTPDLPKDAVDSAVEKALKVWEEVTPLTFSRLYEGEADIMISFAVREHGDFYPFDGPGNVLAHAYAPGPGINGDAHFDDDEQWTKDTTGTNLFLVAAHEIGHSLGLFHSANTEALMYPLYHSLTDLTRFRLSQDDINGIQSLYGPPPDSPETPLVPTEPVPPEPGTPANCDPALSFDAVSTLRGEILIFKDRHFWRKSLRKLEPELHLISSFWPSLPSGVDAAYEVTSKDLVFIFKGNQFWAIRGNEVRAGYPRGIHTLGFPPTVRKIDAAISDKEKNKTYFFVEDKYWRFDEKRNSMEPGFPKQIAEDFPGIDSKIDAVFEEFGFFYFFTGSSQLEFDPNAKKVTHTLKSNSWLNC
Source text: The enzymes are purchased from Calbiochem.
as §1

IL-6 = test: Mouse ear edema model, IL-6 secretion by ear skin cells; format: in vivo, Balb/c mouse; conditions: ear tissue biopsy, topical Day 1 to Day 7; FIG. 2B
Method: as §2, §3, §4

MMP-1 = target: T2, MMP-1 (Homo sapiens, UniProt P03956); test: Selectivity assay, MMP-1; format: biochemical; conditions: Table 3, Example 30
T2 construct: purchased Calbiochem
T2 sequence (P03956 100-469): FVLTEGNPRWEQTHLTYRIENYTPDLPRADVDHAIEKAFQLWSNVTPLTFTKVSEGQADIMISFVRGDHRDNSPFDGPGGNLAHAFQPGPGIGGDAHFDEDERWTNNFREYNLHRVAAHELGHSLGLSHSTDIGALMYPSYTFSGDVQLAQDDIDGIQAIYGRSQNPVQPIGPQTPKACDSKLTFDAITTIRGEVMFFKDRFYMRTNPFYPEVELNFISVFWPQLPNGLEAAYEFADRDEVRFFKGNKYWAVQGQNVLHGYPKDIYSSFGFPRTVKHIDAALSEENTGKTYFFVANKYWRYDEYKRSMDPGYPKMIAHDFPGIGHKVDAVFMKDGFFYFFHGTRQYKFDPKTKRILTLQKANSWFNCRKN

[2] = Table 3, Example 30, read-out: TACE = ADAM 17 (IC50 nM)

Cc1cc(COc2ccc(S(=O)(=O)NC[C@@H](C(=O)NO)N3CCOCC3)cc2)c2ccccc2n1 [B]
effect on other MMPs (other MMPs): no effect | IC50 (TACE enzyme; [2]): 51 nM | IC50 (MMP-12): 226 nM

CCCCC(=O)O[C@]1(C(=O)CO)[C@@H](C)C[C@H]2[C@@H]3CCC4=CC(=O)C=C[C@]4(C)[C@@]3(F)[C@@H](O)C[C@@]21C [CD0153F, betamethasone valerate, reference compound]
inhibition of edema (ear swelling) induced by P. acnes [1]: inhibition of inflammation | secretion of TNFα induced by P. acnes (TNFα): inhibiting TNFα secretion

Cc1cc(COc2ccc(S(=O)(=O)NC[C@@H](C(=O)NO)N3CCC(Cc4ccccc4)CC3)cc2)c2ccccc2n1 [C]
IC50 (TACE enzyme; [2]): 62 nM

Cc1cc(COc2ccc(S(=O)(=O)NC[C@@H](C(=O)NO)N3CCCCC3)cc2)c2ccccc2n1 [Compound A]
effect on other MMPs (other MMPs): no effect | IC50 (MMP-12): 977 nM

Cc1cc(COc2ccc(S(=O)(=O)NC[C@@H](C(=O)NO)N3CCC(S(=O)(=O)C(C)C)CC3)cc2)c2ccccc2n1 [Compound D]
IC50 (MMP-3): 574 nM | secretion of IL-6 induced by P. acnes (IL-6): moderately reduced | IC50 (TACE enzyme; [2]): 33 nM | inhibition of edema (ear swelling) induced by P. acnes [1]: did not inhibit the edema | IC50 (MMP-1): 969 nM | secretion of TNFα induced by P. acnes (TNFα): greatly reduced

CC#CCOc1ccc(S(=O)(=O)N(C)CC(C(=O)NO)N2CCN(S(C)(=O)=O)CC2)cc1 (centres unmarked) [Example 1, 3-[(4-but-2-ynyloxybenzenesulfonyl)methylamino]-N-hydroxy-2-(4-methanesulfonylpiperazin-1-yl)propionamide]
% TACE inhibition at 10 μM (TACE enzyme): 100%

CN(C[C@@H](C(=O)NO)N1CCN(S(C)(=O)=O)CC1)S(=O)(=O)c1ccc(OCc2ccccc2)cc1 [Example 4, (S)-3-[(4-Benzyloxybenzenesulfonyl)methylamino]-N-hydroxy-2-(4-methanesulfonylpiperazin-1-yl)propionamide]
% TACE inhibition at 10 μM (TACE enzyme): 95% | IC50 (TACE enzyme; Table 1, read-out: IC50 - TACE): 497 nM
